In assay [1] the target is His-GST-TVMV-hRIPK1(1-324) (Homo sapiens (Human), UniProt Q13546). As to the kind of experiment: RIPK1 HTRF Binding Assay. The note with it: HTRF binding, 1 h at rt; read-out: RIPK1 (IC50). The method, boiled down: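 HTRF probe-displacement binding: 1 nM His-GST-TVMV-hRIPK1(1-324) (baculovirus construct), 90.6 nM probe, 0.2 nM anti-GST-Tb in 20 mM HEPES, 10 mM MgCl2, 0.015% Brij-35, 4 mM DTT, 0.05 mg/mL BSA. Incubated 1 h at rt; FRET 520/495 nm ratio, inhibition relative to DMSO-only wells.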
On the technique in general: TR-FRET usually uses a lanthanide donor and a delayed reading to cut background.

Assay [2] relates to MLKL phosphorylation in HT29-L23 human colorectal adenocarcinoma cells. As to the kind of experiment: MLKL Phosphorylation High-Content Assay. It is filed as cell-based. The settings on record: Homo sapiens, 6 h, necroptosis induced with TNFα, SMAC mimetic and Z-VAD, read-out: pMLKL (IC50). The method, boiled down:
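HT29-L23 cells pretreated 30 min at 37 °C with compound (6.25 to 0.106 μM final), then necroptosis induced with TNFα 35 ng/mL, SMAC mimetic 700 nM and Z-VAD 140 nM for 6 h. Fixed cells immunostained for MLKL pS358 and imaged; IC50 and Ymax from 4-parameter logistic fit.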

What is called IC50 is the concentration that gives 50% inhibition.

Sequence of His-GST-TVMV-hRIPK1(1-324) (Q13546 1-324): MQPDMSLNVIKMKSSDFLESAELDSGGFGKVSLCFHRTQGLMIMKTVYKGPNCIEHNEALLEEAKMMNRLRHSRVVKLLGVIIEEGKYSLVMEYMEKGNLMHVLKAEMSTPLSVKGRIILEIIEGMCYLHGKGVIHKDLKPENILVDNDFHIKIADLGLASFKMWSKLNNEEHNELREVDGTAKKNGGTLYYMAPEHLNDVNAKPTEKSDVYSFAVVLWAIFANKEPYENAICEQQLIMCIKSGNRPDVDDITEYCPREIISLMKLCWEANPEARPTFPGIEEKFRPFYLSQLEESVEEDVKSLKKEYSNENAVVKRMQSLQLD

Turning to `COc1ncc(-c2ccc3nc(NC(C)=O)cn3n2)cc1C(=O)NCc1c(F)cccc1OC1CCCC1` [Example 156, N-{[2-(cyclopentyloxy)-6-fluorophenyl]methyl}-5-{2-acetamidoimidazo[1,2-b]pyridazin-6-yl}-2-methoxypyridine-3-carboxamide], the IC50 in assay [1] turned out to be 2 nM; in assay [2] it was 3 nM.
In the case of `COc1ncc(-c2ccc3nc(NC(C)=O)cn3n2)cc1C(=O)NCc1ccccc1OC(F)(F)F` [Example 157, 5-{2-acetamidoimidazo[1,2-b]pyridazin-6-yl}-2-methoxy-N-{[2-(trifluoro-methoxy)phenyl]methyl}pyridine-3-carboxamide], the figures for the IC50 in assay [1] and in assay [2] were 17 nM and 93 nM, respectively.
Consider `COc1ncc(-c2ccc3nc(NC(C)=O)cn3n2)cc1C(=O)NCc1ccccc1S(=O)(=O)C1CC1` [Example 158, N-{[2-(cyclopropanesulfonyl)phenyl]methyl}-5-{2-acetamidoimidazo[1,2-b]pyridazin-6-yl}-2-methoxypyridine-3-carboxamide], for which the IC50 in assay [1] amounted to 31 nM; in assay [2] it was 336 nM.
The corresponding values for `COc1ncc(-c2ccc3nc(NC(C)=O)cn3n2)cc1C(=O)NCc1ccccc1OC1CCCC1` [Example 159, N-{[2-(cyclopentyloxy)phenyl]methyl}-5-{2-acetamidoimidazo[1,2-b]pyridazin-6-yl}-2-methoxypyridine-3-carboxamide] are 3 nM and 6 nM.
The corresponding values for `COc1ncc(-c2ccc3nc(NC(C)=O)cn3n2)cc1C(=O)NCc1ccccc1-n1cccc1` [Example 160, 5-{2-acetamidoimidazo[1,2-b]pyridazin-6-yl}-2-methoxy-N-{[2-(1H-pyrrol-1-yl)phenyl]methyl}pyridine-3-carboxamide] are 489 nM and 331 nM.
The corresponding values for `COc1ncc(-c2ccc3nc(NC(C)=O)cn3n2)cc1C(=O)NC[C@H]1C[C@@H]1c1ccc(F)cc1` [Example 161, 5-{2-acetamidoimidazo[1,2-b]pyridazin-6-yl}-N-{[(1S,2S)-2-(4-fluorophenyl)cyclopropyl]methyl}-2-methoxypyridine-3-carboxamide] are 145 nM and 311 nM.
With `COc1ncc(-c2ccc3nc(NC(C)=O)cn3n2)cc1C(=O)NCc1ccccc1N1CCOCC1` [Example 162, 5-{2-acetamidoimidazo[1,2-b]pyridazin-6-yl}-2-methoxy-N-{[2-(morpholin-4-yl)phenyl]methyl}pyridine-3-carboxamide], the IC50 was determined as 64 nM in assay [1] and 140 nM in assay [2].
The corresponding values for `COc1ncc(-c2ccc3nc(NC(C)=O)cn3n2)cc1C(=O)NCc1ncccc1OC1CCCC1` [Example 163, N-{[3-(cyclopentyloxy)pyridin-2-yl]methyl}-5-{2-acetamidoimidazo[1,2-b]pyridazin-6-yl}-2-methoxypyridine-3-carboxamide] are 12 nM and 17 nM.
The corresponding values for `COc1ncc(-c2ccc3nc(NC(C)=O)cn3n2)cc1C(=O)NCc1ccccc1OCC1CCCC1` [Example 164, N-{[2-(cyclopentylmethoxy)phenyl]methyl}-5-{2-acetamidoimidazo[1,2-b]pyridazin-6-yl}-2-methoxypyridine-3-carboxamide] are 10 nM and 32 nM.
The corresponding values for `COc1ncc(-c2ccc3nc(NC(C)=O)cn3n2)cc1C(=O)NCc1ccccc1OC(C)C` [Example 165, 5-{2-acetamidoimidazo[1,2-b]pyridazin-6-yl}-2-methoxy-N-{[2-(propan-2-yloxy)phenyl]methyl}pyridine-3-carboxamide] are 4 nM and 11 nM.
Take `COc1ncc(-c2ccc3nc(NC(C)=O)cn3n2)cc1C(=O)NCc1cc(F)ccc1OC1CCCC1` [Example 166, N-{[2-(cyclopentyloxy)-5-fluorophenyl]methyl}-5-{2-acetamidoimidazo[1,2-b]pyridazin-6-yl}-2-methoxypyridine-3-carboxamide]: the IC50 in assay [1] worked out at 4 nM; in assay [2] it was 1 nM.
The corresponding values for `[2H]C([2H])([2H])Oc1nc(C)c(-c2ccc3nc(NC(C)=O)cn3n2)cc1C(=O)NCc1cc(F)cc(F)c1OC1CC(C)OC(C)C1` (stereo not drawn) [Example 167, N-({2-[(2,6-dimethyloxan-4-yl)oxy]-3,5-difluorophenyl}methyl)-5-{2-acetamidoimidazo[1,2-b]pyridazin-6-yl}-2-(deutero)methoxy-6-methylpyridine-3-carboxamide] are 18 nM and 13 nM.
Turning to `[2H]C([2H])([2H])Oc1nc(C)c(-c2ccc3nc(NC(C)=O)cn3n2)cc1C(=O)NCc1cccc(F)c1OC1C[C@@H](C)O[C@@H](C)C1` (stereo partly drawn) [Example 168, N-[(2-{[(2R,6S)-2,6-dimethyloxan-4-yl]oxy}-3-fluorophenyl)methyl]-5-{2-acetamidoimidazo[1,2-b]pyridazin-6-yl}-2-(deutero)methoxy-6-methylpyridine-3-carboxamide], the figures for the IC50 in assay [1] and in assay [2] were 21 nM and 67 nM, respectively.
The corresponding values for `[2H]C([2H])([2H])Oc1nc(C)c(-c2ccc3nc(NC(C)=O)cn3n2)cc1C(=O)NCc1cc(F)cc(F)c1O[C@@H]1CCOC1` [Example 169, N-({3,5-difluoro-2-[(3R)-oxolan-3-yloxy]phenyl}methyl)-5-{2-acetamidoimidazo[1,2-b]pyridazin-6-yl}-2-(deutero)methoxy-6-methylpyridine-3-carboxamide] are 3 nM and 10 nM.
The corresponding values for `[2H]C([2H])([2H])Oc1nc(C)c(-c2ccc3nc(NC(C)=O)cn3n2)cc1C(=O)NCc1cc(F)cc(F)c1O[C@H]1CCOC1` [Example 171, N-({3,5-difluoro-2-[(3S)-oxolan-3-yloxy]phenyl}methyl)-5-{2-acetamidoimidazo[1,2-b]pyridazin-6-yl}-2-(deutero)methoxy-6-methylpyridine-3-carboxamide] are 3 nM and 3 nM.
The corresponding values for `[2H]C([2H])([2H])Oc1nc(C)c(-c2ccc3nc(NC(C)=O)cn3n2)cc1C(=O)NCc1cc(F)cc(F)c1OC1CCOC(C)C1` (stereo not drawn) [Example 172, N-({3,5-difluoro-2-[(2-methyloxan-4-yl)oxy]phenyl}methyl)-5-{2-acetamidoimidazo[1,2-b]pyridazin-6-yl}-2-(deutero)methoxy-6-methylpyridine-3-carboxamide] are 15 nM and 16 nM.
For the molecule `[2H]C([2H])([2H])Oc1nc(C)c(-c2ccc3nc(NC(C)=O)cn3n2)cc1C(=O)NCc1c(F)cccc1OCC(F)(F)F` [Example 173, 5-{2-acetemidoimidazo[1,2-b]pyridazin-6-yl}-N-{[2-fluoro-6-(2,2,2-trifluoroethoxy)phenyl]methyl}-2-(deutero)methoxy-6-methylpyridine-3-carboxamide], the IC50 was determined as 3 nM in assay [1] and 2 nM in assay [2].
The corresponding values for `[2H]C([2H])([2H])Oc1nc(C)c(-c2ccc3nc(NC(C)=O)cn3n2)cc1C(=O)NCc1cc(F)cc(F)c1OC([2H])([2H])C1CC1` [Example 174, N-({2-[cyclopropyl(deutero)methoxy]-3,5-difluorophenyl}methyl)-5-{2-acetamidoimidazo[1,2-b]pyridazin-6-yl}-2-(deutero)methoxy-6-methylpyridine-3-carboxamide] are 3 nM and 1 nM.

The values above are taken from patent US11440913B2, “Aminoimidazopyridazines as kinase inhibitors” (BRISTOL-MYERS SQUIBB COMPANY, priority 2017, dated 2022).
